Measurements as given in patent US20240400553A1, “AMINE BASED MATRIPTASE 2 INHIBITORS AND USES THEREOF” (Disc Medicine, Inc., priority 2023, published 2024).

Molecular target: T1, Human Recombinant Matriptase 2 (Homo sapiens, UniProt Q8IU80)
T1 construct: made in house
T1 sequence (Q8IU80 1-811): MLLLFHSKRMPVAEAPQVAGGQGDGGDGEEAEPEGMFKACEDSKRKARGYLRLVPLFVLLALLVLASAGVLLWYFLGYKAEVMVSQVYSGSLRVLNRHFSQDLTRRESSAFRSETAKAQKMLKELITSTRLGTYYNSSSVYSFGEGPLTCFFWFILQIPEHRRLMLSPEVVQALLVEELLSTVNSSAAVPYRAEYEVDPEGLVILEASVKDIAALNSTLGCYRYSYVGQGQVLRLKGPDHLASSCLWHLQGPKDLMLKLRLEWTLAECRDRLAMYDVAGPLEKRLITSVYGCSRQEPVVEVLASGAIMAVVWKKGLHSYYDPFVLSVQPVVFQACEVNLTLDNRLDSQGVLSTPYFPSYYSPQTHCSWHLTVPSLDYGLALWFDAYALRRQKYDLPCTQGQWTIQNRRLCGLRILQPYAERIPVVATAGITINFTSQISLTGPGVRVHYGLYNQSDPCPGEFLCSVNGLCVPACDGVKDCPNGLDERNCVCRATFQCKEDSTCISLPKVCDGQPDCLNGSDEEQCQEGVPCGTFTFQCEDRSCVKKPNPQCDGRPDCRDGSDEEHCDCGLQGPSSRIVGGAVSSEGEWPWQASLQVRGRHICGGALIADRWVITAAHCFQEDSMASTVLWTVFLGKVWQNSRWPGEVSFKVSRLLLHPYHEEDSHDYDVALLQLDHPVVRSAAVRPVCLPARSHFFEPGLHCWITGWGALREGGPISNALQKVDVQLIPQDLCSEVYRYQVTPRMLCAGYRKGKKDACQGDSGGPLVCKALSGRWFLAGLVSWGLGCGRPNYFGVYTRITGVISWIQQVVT
Test: Matriptase 2 inhibition, fluorescence based assay (Method I)
Assay type: biochemical
Conditions: Table A; Ki of Matriptase-2 given as class symbols; read-out: Mat-2 Ki
Method in brief: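 Fluorogenic readout (Ex 360/Em 480 nm) taken 60 min after adding 62 μM Boc-Gln-Ala-Arg-AMC, following 30-min enzyme–compound preincubation at 25 °C. Conditions: 3.5 nM in-house enzyme, pH 7.5 Tris/NaCl/gelatin buffer, 1% DMSO; percent inhibition versus concentration fitted by variable-slope sigmoidal regression.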

| Ki [nM] | SMILES |
| --- | --- |
| 100 to 500 | NCc1ccc2cc(C(=O)O)n(Cc3cc(NS(=O)(=O)Cc4ccccc4)cc4c3CCCC4)c2n1 [Compound 285, 6-(aminomethyl)-1-((3-((phenylmethyl)sulfonamido)-5,6,7,8-tetrahydronaphthalen-1-yl)methyl)-1H-pyrrolo[2,3-b]pyridine-2-carboxylic acid] |
| ≤ 100 | CN1CCC(COC(=O)c2cc3ccc(CN)nc3n2Cc2cc(NS(=O)(=O)Cc3ccccc3)cc3c2CCCC3)CC1 [Compound 286, (1-methylpiperidin-4-yl)methyl 6-(aminomethyl)-1-((3-((phenylmethyl)sulfonamido)-5,6,7,8-tetrahydronaphthalen-1-yl)methyl)-1H-pyrrolo[2,3-b]pyridine-2-carboxylate] |
| 100 to 500 | NCc1ccc2cc(C(=O)O)n(Cc3cc(NS(=O)(=O)Cc4ccsc4)cc4c3CCCC4)c2n1 [Compound 287, 6-(aminomethyl)-1-({3-[(thiophen-3-yl)methane-sulfonamido]-5,6,7,8-tetrahydronaphthalen-1-yl}methyl)-1H-pyrrolo-[2,3-b]pyridine-2-carbox-ylic acid] |
| 100 to 500 | COCCN1CCN(C(=O)Nc2cc(Cn3c(C(=O)O)cc4ccc(CN)nc43)c3ccccc3c2)CC1 [Compound 288, 6-(aminomethyl)-1-((3-(4-(2-methoxyethyl)piperazine-1-carboxamido)naphthalen-1-yl)methyl)-1H-pyrrolo[2,3-b]pyridine-2-carboxylic acid] |
| 100 to 500 | CN1CCC[C@H]1CCOC(=O)Nc1cc(Cn2c(C(=O)O)cc3ccc(CN)nc32)c2ccccc2c1 [Compound 289, (S)-6-(aminomethyl)-1-((3-(((2-(1-methylpyrrolidin-2-yl)ethoxy)carbonyl)amino)naphthalen-1-yl)methyl)-1H-pyrrolo[2,3-b]pyridine-2-carboxylic acid] |
| 100 to 500 | CCOC(=O)c1cc2ccc(CN)nc2n1Cc1cc(NS(=O)(=O)Cc2ccsc2)cc2ccccc12 [Compound 291] |
| 100 to 500 | NCc1ccc2cc(C(=O)O)n(Cc3cc(NC(=O)NCC4CCN(S(=O)(=O)C5CC5)CC4)cc4ccccc34)c2n1 [Compound 292, 6-(aminomethyl)-1-({3-[({[1-(cyclopropanesul-fonyl)piperidin-4-yl]-methyl}carbamoyl)-amino]naphthalen-1-yl}-methyl)-1H-pyrrolo[2,3-b]pyridine-2-carboxylic acid] |
| 100 to 500 | CS(=O)(=O)N1CCC(CNC(=O)Nc2cc(Cn3c(C(=O)O)cc4ccc(CN)nc43)c3ccccc3c2)CC1 [Compound 293, 6-(aminomethyl)-1-{[3-({[(1-methanesulfonyl-piperidin-4-yl)methyl]-carbamoyl}amino)naph-thalen-1-yl]methyl}-1H-pyrrolo[2,3-b]pyridine-2-carboxylic acid] |
| 100 to 500 | CC(C)(C)S(=O)(=O)N1CCC(CNC(=O)Nc2cc(Cn3c(C(=O)O)cc4ccc(CN)nc43)c3ccccc3c2)CC1 [Compound 294, 6-(aminomethyl)-1-({3-[({[1-(2-methylpropane-2-sulfonyl)piperidin-4-yl]methyl}carbamoyl)-amino]naphthalen-1-yl}-methyl)-1H-pyrrolo[2,3-b]pyridine-2-carboxylic acid] |
| 500 to 3000 | C[C@@H]1CN(C(=O)Nc2cc(Cn3c(C(=O)O)cc4ccc(CN)nc43)c3ccccc3c2)CCN1 [Compound 295, 6-(aminomethyl)-1-[(3-{[(3R)-3-methylpipera-zine-1-carbonyl]amino}-naphthalen-1-yl)methyl]-1H-pyrrolo[2,3-b]pyr-idine-2-carboxylic acid] |
| 500 to 3000 | CC1(C)CCN(C(=O)Nc2cc(Cn3c(C(=O)O)cc4ccc(CN)nc43)c3ccccc3c2)CC1 [Compound 296, 6-(aminomethyl)-1-({3-[(4,4-dimethylpiperidine-1-carbonyl)amino]naph-thalen-1-yl}methyl)-1H-pyrrolo[2,3-b]pyridine-2-carboxylic acid] |
